In test [1] the target is T1, Fructofuranosidase activity of the extracellular fraction of S. occidentalis (Schwanniomyces occidentalis, UniProt P24133).
T1 construct: the enzyme object of the invention is extracellularly released; endogenous in cells; host or cells: Schwanniomyces occidentalis (ATCC26077 named) grown in lactose medium; the cell-free supernatant was concentrated by 30 kDa tangential filtration and dialysed
Nature of the test: Fructofuranosidase activity of the extracellular fraction on different carbohydrates (glucose release, glucose oxidase-peroxidase). In kind it is biochemical. As to conditions: for Fructofuranosidase activity on substrate (in words): extracellular fraction, named sugar used as substrate; for Specific activity: extracellular fraction concentrated (30 kDa filter) and dialysed, activity on the named substrate. The procedure:
(§1) The cell free fraction was obtained by centrifugation (F-0) of a culture of S. occidentalis ATCC26077 grown at 29° C. and 235 rpm. Fructofuranosidase activity was assayed in the latter, determining the glucose release on different substrates. A colorimetric assay and the standard methodology were used. The released glucose was quantified using the glucose oxidase-peroxidase coupled reaction: 0.4 ml of the solution to be determined was mixed with 0.1 ml of A:B (20:1) solution (A: 0.85 U/ml glucose oxidase, 0.40 U/ml peroxidase in sodium phosphate buffer pH 5; B: 0.6% O-dianisidine). It was incubated for 30 minutes at 37° C. and spectrophotometrically quantified at 450 nm. A standard glucose curve (0 to 100 μg/ml) was used. The fructofuranosidase activity unit is defined in μmol/ml min of glucose determined in the described conditions.
The cell free fraction, obtained by centrifugation, of a culture of S. occidentalis grown in lactose medium: 0.3% (w/v) YNB (yeast nitrogen base w/o amino acids, DIFCO), 3.5% (w/v) bactopeptone (DIFCO), 0.5% (w/v) KH2 PO4, 1% (w/v) MgSO4.7H2O, 1% (w/v) (NH4)SO4, and 2% lactose as a carbon source (R. D. Klein et al., “Purification and characterization of invertase from to novel industrial yeast, Schwanniomyces occidentalis”, Prep. Biochem, 1989, vol 19, pp. 293-319), grown until an optical density of 8.34 OD 660 nm, was concentrated using a tangential filtration system (30 kDa filter) followed by dialysis against 20 mM HCl-Tris pH 7 for 2 hours at a temperature of 4° C. and was assayed on different substrates.

For test [2], the target named is T2, Fructofuranosidase activity of the F-3 fraction of S. occidentalis (Schwanniomyces occidentalis, UniProt P24133).
T2 construct: the enzyme object of the invention is extracellularly released; endogenous in cells; host or cells: Schwanniomyces occidentalis culture supernatant; concentrated (F-1), then DEAE-Sephacel at pH 7 (F-2) and at pH 5 (F-3)
T2 sequence (P24133 other isoform, or with tags, fused parts or gaps with the stated changes): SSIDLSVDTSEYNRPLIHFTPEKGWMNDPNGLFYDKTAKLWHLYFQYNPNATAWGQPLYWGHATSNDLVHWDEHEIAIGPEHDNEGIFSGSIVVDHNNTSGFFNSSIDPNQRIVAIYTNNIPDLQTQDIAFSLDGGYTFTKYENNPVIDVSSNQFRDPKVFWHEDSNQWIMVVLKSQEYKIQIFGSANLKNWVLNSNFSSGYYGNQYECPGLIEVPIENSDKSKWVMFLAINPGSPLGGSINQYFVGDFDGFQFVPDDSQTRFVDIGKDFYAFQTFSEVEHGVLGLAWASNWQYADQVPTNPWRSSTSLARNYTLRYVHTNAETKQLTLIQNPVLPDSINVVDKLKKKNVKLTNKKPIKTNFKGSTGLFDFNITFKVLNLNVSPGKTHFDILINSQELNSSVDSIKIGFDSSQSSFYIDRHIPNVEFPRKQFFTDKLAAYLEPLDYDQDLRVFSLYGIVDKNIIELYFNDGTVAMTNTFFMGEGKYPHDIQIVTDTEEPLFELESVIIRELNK
Nature of the test: Fructofuranosidase (hydrolytic) activity of the purified enzyme F-3 on different substrates. In kind it is biochemical. The following applies: for Hydrolytic activity on substrate (in words): purified enzyme F-3; for Activity specific: purified protein F-3, 1% substrate. The procedure:
as §1
The hydrolytic activity of the purified enzyme (F-3), following the described method, was assayed on different substrates. The maximum activity level is obtained on sucrose. Activity on lactose, leucrose, turanose or palatinose was not observed.

T1 sequence (P24133 other isoform, or with tags, fused parts or gaps with the stated changes): as above

For `O=C(CO)[C@@H](O[C@H]1O[C@H](CO)[C@@H](O)[C@H](O)[C@H]1O)[C@H](O)[C@H](O)CO` [turanose], the “Fructofuranosidase activity on substrate (in words)” value (from here on “Fructofuranosidase activity”) in test [1] is given as “No activity was detected”. Moreover, in test [2], the “Hydrolytic activity on substrate (in words)” value (shortened to “Hydrolytic activity”) is “not observed”.

Turning to `OC[C@H]1O[C@H](OC[C@H]2O[C@H](O[C@]3(CO)O[C@H](CO)[C@@H](O)[C@@H]3O)[C@H](O)[C@@H](O)[C@@H]2O)[C@H](O)[C@@H](O)[C@H]1O` [raffinose], the Specific activity in test [1] was 0.2 mU/μg. Further, the Activity specific in test [2] turned out to be 7.5 mU/μg.

`OC[C@H]1O[C@H](O[C@@H]2COC(O)(CO)[C@@H](O)[C@@H]2O)[C@H](O)[C@@H](O)[C@@H]1O` (stereo partly drawn) [leucrose]: in test [1], the “Fructofuranosidase activity” value is recorded as “No activity was detected”. For the same molecule, the “Hydrolytic activity” value in test [2] is “not observed”.

For the molecule `OC[C@H]1O[C@H](OC[C@H]2OC(O)(CO)[C@@H](O)[C@@H]2O)[C@H](O)[C@@H](O)[C@@H]1O` (stereo partly drawn) [palatinose], the “Fructofuranosidase activity” value in test [1] was “No activity was detected”. The “Hydrolytic activity” value in test [2] was “not observed”.

The molecule `OC[C@H]1O[C@@](CO)(OC[C@@]2(OC[C@@]3(O[C@H]4O[C@H](CO)[C@@H](O)[C@H](O)[C@H]4O)O[C@H](CO)[C@@H](O)[C@@H]3O)O[C@H](CO)[C@@H](O)[C@@H]2O)[C@@H](O)[C@@H]1O` [nystose] had a Specific activity in test [1] of 0.6 mU/μg. In test [2], this molecule returned an Activity specific of 6.2 mU/μg.

Regarding `OC[C@H]1O[C@@H](O[C@H]2[C@H](O)[C@@H](O)C(O)O[C@@H]2CO)[C@H](O)[C@@H](O)[C@H]1O` (stereo partly drawn) [lactose], the “Fructofuranosidase activity” value in test [1] is “No activity was detected”. In test [2], the “Hydrolytic activity” value is listed as “not observed”.

The values above are taken from patent publication US20090148907A1, “NOVEL FRUCTOFURANOSIDASE ACTIVITY FOR OBTAINING THE PREBIOTIC OLIGOSACCHARIDE 6-KESTOSE” (CONSEJO SUPERIOR DE INVESTIGACIONES CIENTIFICAS, priority 2005, published 2009).
